Source: US7732200B2, “Materials and methods for nerve grafting, selection of nerve grafts, and in vitro nerve tissue culture” (University of Florida Research Foundation, Inc., priority 2001, dated 2010)

Tests used:
sciatic nerve = assay: Axonal regeneration after bilateral sciatic nerve crush injury (axonotmesis); assay type: in vivo, rat; conditions: 1 U in 2 μl; 2 days after injury; 6 nerves per condition
Protocol: Surgical procedures for nerve transection and nerve crush experiments. All surgical procedures were performed according to Institutional Animal Care and Use Committee (IACUC) approved protocols. Young adult SPRAGUE DAWLEY rats (HARLAN Indianapolis, Ind.) were deeply anesthetized with xylazine (15 mg/kg, i.m.) followed by ketamine-HCl (110 mg/kg, i.p.). Six animals received bilateral nerve crush injuries. Sciatic nerves were exposed and then crushed with firm pressure for thirty seconds with a DUMONT #5 forceps at a site 4 mm distal to the tendon of the internal obdurator. The crush site was marked with an epineurial suture. In a separate set of experiments, eight rats received bilateral sciatic nerve transection injuries using serrated scissors. The proximal and distal stumps were […] by epineurial neurorrhaphy using 9-0 ETHILON sutures. Fibrin glue (fibrinogen and thrombin) was then applied to stabilize the union. […]
Immunocytochemistry. Axonal regeneration was assessed by GAP-43 immunofluorescence and digital image analysis. […]
The hypothesis that chondroitinase treatment improves axonal growth through the site of nerve crush injury was tested. […] Regenerating axons were labeled by GAP-43 immunofluorescence and scored by digital image analysis. […]

[1] = tested on: embryonic chick DRG neurons; assay: Cryoculture bioassay of chondroitinase-treated acellular rat nerve segments; assay type: cell-based
From the text: Preparation of acellular nerve grafts treated with chondroitinase: Adult (180-200 g) female SPRAGUE DAWLEY rats (HARLAN, Indianapolis, Ind.) were used as nerve donors and recipient hosts. Donor rats were anesthetized with halothane and decapitated. Sciatic nerves were exposed through a gluteal muscle-splitting incision and isolated free of underlying fascia. A 15-mm nerve segment was excised rostral to the bifurcation into common peroneal and tibial nerves. The segments were rinsed with cold sterile Ringer's solution, stabilized by pinning the ends to a thin plastic support, and transferred to a cryogenic vial. The vials were submerged in liquid nitrogen for 2 minutes and then transferred to a 37° C. water bath for 2 minutes. This freeze/thaw cycle was repeated, yielding acellular nerve grafts that were then stored in liquid nitrogen. On the day before grafting, the nerve grafts were warmed to room temperature and incubated in 100 μl phosphate buffered saline pH 7.4 (PBS) containing 2 units/ml chondroitinase ABC (SIGMA, St. Louis, Mo.) or in PBS (vehicle) only for 16 hours at 37° C. The grafts were rinsed twice with Ringer's and kept on ice prior to use. The chondroitinase ABC preparation was highly purified and stated by the manufacturer to be essentially free of protease activity.
Cryoculture bioassay. Cryoculture is a neurite outgrowth assay in which neurons are cultured directly on fresh/frozen nerve sections and was performed as described previously (Ferguson T A et al. [2000] Mol Cell Neurosci, 16:157-167). Briefly, chondroitinase- and vehicle-treated nerve segments were sectioned at 20 μm, mounted on sterile, aminopropyltriethoxysilane (APTS)-coated coverslips and stored at −20° C. until used. Where indicated, sections were treated with chondroitinase ABC (0.1 unit/ml) or vehicle (50 mM Tris-HCl, pH 8.0), containing 50 mM NaCl) for 2 h at 37° C. Purified dorsal root ganglionic (DRG) neurons from day 8 chick embryos were seeded directly on the nerve sections in a defined N2 medium (Bottenstein J E et al. [1980] Exp Cell Res 125:183-190) containing 10 ng/ml nerve growth factor. Cryoculture assays were terminated after 24 h of incubation by fixation with 100% methanol. Neuritic growth by DRG neurons was accessed by GAP-43 immunofluorescent labeling. […] Neurite lengths were measured directly using IMAGE-PRO PLUS software (MEDIA CYBERNETICS, Silver Springs, Md.). At least 250 neurons with neurites greater than one cell body (˜15 μm) were scored for each condition in each experiment.
Inactivation of inhibitory CSPG in chondroitinase-treated acellular nerve was determined by cryoculture bioassay. Embryonic chick DRG neurons were seeded onto sections of prepared nerve segments and the neurite-promoting activity was assessed by scoring neurite growth. […]

In the case of chondroitinase ABC, the “axonal regeneration after nerve crush injury (GAP-43 immunoreactivity) vs vehicle” value (sciatic nerve) is reported as “not significantly effected”, the average neurite length ([1]; acellular nerve pretreated en bloc, DRG neurons 24 h) is reported as 96 μm and the “increase in neurite growth compared to the control condition” value ([1]; en bloc treatment vs en bloc vehicle) is reported as 95%. For the same substance, the “increase in neurite-promoting activity by post-treatment of sections” value ([1]; nerve treated en bloc with vehicle only, sections post-treated 0.1 unit/ml 2 h) was 86% and the “effect of post-treatment on sections from en bloc treated nerve” value ([1]; sections of en bloc chondroitinase-treated nerve grafts) was “only a slight additive effect”.
